Assay results from US9676704B2, “Pesticidal compositions and processes related thereto” (Dow AgroSciences LLC, priority 2014, dated 2017).

Key:
[1] = system: Yellow Fever Mosquito (YFM); type: in vivo, Aedes aegypti; settings: 15 μL of diluted 4000 ppm master solution per well, about 1 day-old larvae, 3 days
In short: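 About 1-day-old Aedes larvae in liver-powder water were exposed to compound diluted from 4000 ppm DMSO master stocks in water:acetone. Plates held 3 days at room temperature under a non-evaporative lid; wells were then scored for mortality, 6 replicates per compound.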

Cabbage Looper (CL) = experiment: Bioassays on CL, 128-well diet tray assay; type: in vivo; settings: Trichoplusia ni
In short: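 Second-instar larvae, one to five per well, were placed on artificial diet treated with 50 μg/cm^2 compound (in 90:10 acetone-water) and dried, with eight wells per compound. Trays were held at 25° C, 14:10 light-dark, for five to seven days. Percent mortality was scored per well and averaged.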

Green Peach Aphid (GPA) = experiment: Bioassays on Green Peach Aphid, cabbage seedling foliar spray; type: in vivo; settings: Myzus persicae, 72 h; 200 ppm foliar spray on cabbage seedlings, three days, Abbott corrected % control; read-out: GPA % Control (or Mortality) rating
Procedure: Cabbage seedlings grown in 3-inch pots, with 2-3 small (3-5 cm) true leaves, were used as test substrate. The seedlings were infested with 20-50 GPA (wingless adult and nymph stages) one day prior to chemical application. Four pots with individual seedlings were used for each treatment. Test compounds (2 mg) were dissolved in 2 mL of acetone/MeOH (1:1) solvent, forming stock solutions of 1000 ppm test compound. The stock solutions were diluted 5× with 0.025% Tween 20 in water to obtain the solution at 200 ppm test compound. A hand-held aspirator-type sprayer was used for spraying a solution to both sides of […] leaves until runoff. Reference plants (solvent check) were sprayed with the diluent only containing 20% by volume of acetone/MeOH (1:1) solvent. Treated plants were held in a holding room for three days at approximately 25° C. and ambient relative humidity (RH) prior to grading. Evaluation was conducted by counting the number of live aphids per plant under a microscope. Percent Control was measured by using Abbott's correction formula (W. S. Abbott, “A Method of Computing the Effectiveness of an Insecticide” J. Econ. Entomol. 18 (1925), pp. 265-267) as follows. Corrected % Control=100*(X−Y)/X where X=No. of live aphids on solvent check plants and Y=No. of live aphids on treated plants. The results are indicated in the table entitled “Table ABC: Assay Results (F)” and “Table ABCD: Assay Results (C)” (See Table Section).

Beet Armyworm (BAW) = experiment: Bioassays on BAW, 128-well diet tray assay; type: in vivo; settings: Spodoptera exigua
In short: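 Test compound was applied at 50 μg/cm^2 in 90:10 acetone-water to the artificial diet surface and dried, with eight wells per compound. One to five second-instar beet armyworm larvae were placed per well and held at 25 °C, 14:10 light-dark, for five to seven days. Percent mortality was averaged over the wells.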

## C[C@H](NC(=O)CC(F)(F)F)NC(=O)c1ccc(/C=C/C(c2cc(Cl)c(Cl)c(Cl)c2)C(F)(F)F)cc1C(F)(F)F (stereo partly drawn) [Compound F2, 4-((E)-4,4,4-trifluoro-3-(3,4,5-trichlorophenyl)but-1-en-1-yl)-2-(trifluoromethyl)-N—((R)-1-(3,3,3-trifluoropropanamido)ethyl)benzamide]
[1]
  YFM % Control (or Mortality) rating: A (80-100)
Cabbage Looper (CL); 168 h, 50 μg/cm^2 on artificial diet, second instar larvae, five to seven days, 25° C., read-out: CL % Control (or Mortality) rating
  mortality at 50 µg/cm2: 50 to 100%
Cabbage Looper (CL); 0.05 μg/cm^2, read-out: CL Percent control (or mortality)
  mortality at 0.05 µg/cm2: 100%
Cabbage Looper (CL); 0.5 μg/cm^2, read-out: CL Percent control (or mortality)
  mortality at 0.5 µg/cm2: 100%
Cabbage Looper (CL); 5 μg/cm^2, read-out: CL Percent control (or mortality)
  mortality at 5 µg/cm2: 100%
Green Peach Aphid (GPA)
  mortality at 200 ppm: 0%
Beet Armyworm (BAW); 168 h, 50 μg/cm^2 on artificial diet, second instar larvae, five to seven days, 25° C., read-out: BAW % Control (or Mortality) rating
  mortality at 50 µg/cm2: 50 to 100%
Beet Armyworm (BAW); 0.05 μg/cm^2, read-out: BAW Percent control (or mortality)
  mortality at 0.05 µg/cm2: 100%
Beet Armyworm (BAW); 0.5 μg/cm^2, read-out: BAW Percent control (or mortality)
  mortality at 0.5 µg/cm2: 100%
Beet Armyworm (BAW); 5 μg/cm^2, read-out: BAW Percent control (or mortality)
  mortality at 5 µg/cm2: 100%
